Data on 29 molecules can be found in patent US20230303540A1 (Merck Sharp & Dohme LLC, priority 2020, published 2023).

In the assay the target is GST-tagged truncated human mutant G2019S LRRK2 (Homo sapiens, UniProt Q5S007, G2019S). The assay is described as follows: LRRK2 G2019S Km ATP LanthaScreen assay. The class given is biochemical. Conditions: 134 μM ATP (Km ATP), LRRKtide substrate, mean IC50 values; read-out: LRRK2 pIC50 (converted). The gist of the method:
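LanthaScreen TR-FRET read with fluorescein-LRRKtide and 134 μM ATP (Km) in Tris pH 8.5/10 mM MgCl2 buffer. The enzyme was preincubated 15 min with compound at room temperature, and the reaction ran 90 min at ambient temperature. Stopped with EDTA plus Tb anti-phospho-LRRKtide antibody; the 520/495 nm ratio gave a 4-parameter logistic IC50, mean of several runs.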
A general note: TR-FRET usually uses a lanthanide donor and a delayed reading to cut background.
As to `CC1(n2ncc(Nc3ncc4cc(Cl)c(N5CC6(CN(CC(F)(F)F)C6)C5)cc4n3)c2Cl)CC1` [Ex-4.38, 6-chloro-N-[5-chloro-1-(1-methylcyclopropyl)-1H-pyrazol-4-yl]-7-[6-(2,2,2-trifluoroethyl)-2,6-diazaspiro[3.3]heptan-2-yl]quinazolin-2-amine], the IC50 is 29.4 nM.
In the case of `CC(C)(C)n1ncc(Nc2ncc3cc(Cl)c(N4CCC(N5CC(F)(F)C5)CC4)cc3n2)c1Cl` [Ex-4.33, N-(1-tert-butyl-5-chloro-1H-pyrazol-4-yl)-6-chloro-7-[4-(3,3-difluoroazetidin-1-yl)piperidin-1-yl]quinazolin-2-amine], the IC50 was 4.75 nM.
The result for `CCn1ncc(Nc2ncc3ccc(N4C(=O)CCC4C)cc3n2)c1C` (single isomer, unassigned) [Ex-7.17, (R) or (S) 1-{2-[(1-ethyl-5-methyl-1H-pyrazol-4-yl)amino]quinazolin-7-yl}-5-methylpyrrolidin-2-one] reads 54.9 nM.
As to `Cc1cc2cnc(Nc3cnn(C)c3C)nc2cc1N1CCN(C2(C)COCC2O)CC1` (single isomer, unassigned) [Ex-2.2, (3S,4S or 3R,4R)-4-(4-{2-[(1,5-dimethyl-1H-pyrazol-4-yl)amino]-6-methylquinazolin-7-yl}piperazin-1-yl)-4-methyloxolane-3-ol], the IC50 was 36 nM.
For `CN(C)c1cc2nc(Nc3cnn(C4CC4(F)F)c3Cl)ncc2cc1Cl` (single isomer, unassigned) [Ex-3.42, (R) or (S) 6-chloro-N~2~-[5-chloro-1-(2,2-difluorocyclopropyl)-1H-pyrazol-4-yl]-N~7~,N~7~-dimethylquinazoline-2,7-diamine], the IC50 was 7.37 nM.
In the case of `Cc1c(Nc2ncc3cc(Cl)c(N4CCN(C5COCC5O)CC4)cc3n2)cnn1C(C)(C)C#N` (single isomer, unassigned) [Ex-6.23, (3S,4S) or (3R,4R) 2-[4-({6-chloro-7-[4-(4-hydroxyoxolan-3-yl)piperazin-1-yl]quinazolin-2-yl}amino)-5-methyl-1H-pyrazol-1-yl]-2-methylpropanenitrile] it was 13.2 nM; in that of `CC(C)c1cc(Nc2ncc3ccc(N4C(=O)OC[C@@H]4C)cc3n2)ns1` [Ex-8.9, (4S)-4-methyl-3-(2-{[5-(propan-2-yl)-1,2-thiazol-3-yl]amino}quinazolin-7-yl)-1,3-oxazolidin-2-one], 8.03 nM.
In the case of `CC1(N2CCN(c3cc4nc(Nc5ccnn5C(C)(C)C)ncc4cc3Cl)CC2)COCC1O` (single isomer, unassigned) [Ex-6.48, (3S,4S) or (3R,4R) 4-(4-(2-((1-(tert-butyl)-1H-pyrazol-5-yl)amino)-6-chloroquinazolin-7-yl)piperazin-1-yl)-4-methyltetrahydrofuran-3-ol] it was 11.4 nM; in that of `Cc1c(Nc2ncc3cc(Cl)c(N4CCN(C5(C)COC5)CC4)cc3n2)cnn1CC(C)(C)O` [Ex-4.55, 1-[4-({6-chloro-7-[4-(3-methyloxetan-3-yl)piperazin-1-yl]quinazolin-2-yl}amino)-5-methyl-1H-pyrazol-1-yl]-2-methylpropan-2-ol], 11.1 nM; in that of `C[C@H]1COC(=O)N1c1ccc2cnc(Nc3cn(C)nc3C(F)(F)F)nc2c1` [Ex-7.7, (4S)-4-methyl-3-(2-{[1-methyl-3-(trifluoromethyl)-1H-pyrazol-4-yl]amino}quinazolin-7-yl)-1,3-oxazolidin-2-one], 1.92 nM.
Consider `Cc1c(Nc2ncc3ccc(N4C(=O)OC[C@@H]4C)cc3n2)cnn1C1C[C@@H](C)O[C@@H](C)C1` (single isomer, unassigned) [Ex-7.6], for which the IC50 is 1.57 nM.
With `C[C@]1(O)[C@@H]2CC[C@H]1CN(c1cc3nc(Nc4cnn(C5CC5)c4)ncc3cc1Cl)C2` [Ex-1.36, (8-syn)-3-{6-chloro-2-[(1-cyclopropyl-1H-pyrazol-4-yl)amino]quinazolin-7-yl}-8-methyl-3-azabicyclo[3.2.1]octan-8-ol], the IC50 was 6.72 nM.
For `Cc1c(Nc2cc3cc(N4CCN(C5(C)COCC5O)CC4)c(Cl)cc3cn2)cnn1C1CC1` (single isomer, unassigned) [Ex-6.51, (3S,4S) or (3R,4R) 4-(4-(7-chloro-3-((1-cyclopropyl-5-methyl-1H-pyrazol-4-yl)amino)isoquinolin-6-yl)piperazin-1-yl)-4-methyltetrahydrofuran-3-ol], the IC50 is 1.35 nM.
As for `CC(C)Nc1cc2nc(Nc3cnn(C4CCN(C5(C)COC5)CC4)c3Cl)ncc2cc1Cl` [Ex-3.46], the IC50 is 15 nM.
With `OC1COCC1N1CCN(c2cc3nc(Nc4cnn(C5CC5(F)F)c4Cl)ncc3cc2Cl)CC1` (single isomer, unassigned) [Ex-6.31, (3S,4S) or (3R,4R) 4-[4-(6-chloro-2-{[5-chloro-1-(2,2-(R) or (S)difluorocyclopropyl)-1H-pyrazol-4-yl]amino}quinazolin-7-yl)piperazin-1-yl]oxolan-3-ol], the IC50 is 17.9 nM.
As for `Cn1ncc(Nc2ncc3cc(Cl)c(N4CCN(C5(C)COCC5O)CC4)cc3n2)c1C(F)F` (single isomer, unassigned) [Ex-6.49, (3S,4S) or (3R,4R) 4-(4-(6-chloro-2-((5-(difluoromethyl)-1-methyl-1H-pyrazol-4-yl)amino)quinazolin-7-yl)piperazin-1-yl)-4-methyltetrahydrofuran-3-ol], the IC50 is 2.07 nM.
On to `OC1COCC1N1CCN(c2cc3nc(Nc4cnn(C56CC(F)(C5)C6)c4Cl)ncc3cc2Cl)CC1` (single isomer, unassigned) [Ex-3.58, (3R,4R) or (3S,4S) 4-(4-(6-chloro-2-((5-chloro-1-(3-fluorobicyclo[1.1.1]pentan-1-y])-1H-pyrazol-4-yl)amino)quinazolin-7-yl)piperazin-1-yl) tetrahydrofuran-3-ol], for which the IC50 was 0.44 nM.
For the molecule `Cc1c(Nc2ncc3cc(Cl)c(N4CCN(C5CCCC5C#N)CC4)cc3n2)cnn1C1CC1` (single isomer, unassigned) [Ex-1.7, (3S,4S or 3R,4R)-2-(4-{6-chloro-2-[(1-cyclopropyl-5-methyl-1H-pyrazol-4-yl)amino]quinazolin-7-yl}piperazin-1-yl)cyclopentane-1-carbonitrile], the IC50 was 6.91 nM.
In the case of `CC1CCC12CN(c1cc3nc(Nc4cnn(C5(C)CC5)c4Cl)ncc3cc1Cl)C2` (centres unmarked) [Ex-4.24, 6-chloro-N-[5-chloro-1-(1-methylcyclopropyl)-1H-pyrazol-4-yl]-7-(5-methyl-2-azaspiro[3.3]heptan-2-yl)quinazolin-2-amine] it was 218 nM; in that of `CC1(O)C2CC1CN(c1cc3nc(Nc4cnn(C5CC5)c4Cl)ncc3cc1Cl)C2` (centres unmarked) [Ex-1.41, 3-{6-chloro-2-[(5-chloro-1-cyclopropyl-1H-pyrazol-4-y)amino]quinazolin-7-yl}-6-methyl-3-azabicyclo[3.1.1]heptan-6-ol], 8.93 nM; in that of `Cn1ncc(Nc2ncc3cc(Cl)c(N4CCN(C5(C)COC5)CC4)cc3n2)c1C(F)(F)F` [Ex-4.15, 6-chloro-7-[4-(3-methyloxetan-3-yl)piperazin-1-yl]-N-[1-methyl-5-(trifluoromethyl)-1H-pyrazol-4-yl]quinazolin-2-amine], 19.3 nM.
Turning to `Cn1ncc(Nc2ncc3cc(Cl)c(N4CCN(C5(C)COC5)CC4)cc3n2)c1Cl` [Ex-4.47, 6-chloro-N-(5-chloro-1-methyl-1H-pyrazol-4-yl)-7-[4-(3-methyloxetan-3-yl)piperazin-1-yl]quinazolin-2-amine], the IC50 was 8.56 nM.
Consider `CN1CCN(c2cc3nc(Nc4cnn(C)c4Cl)ncc3cc2Cl)CC1` [Ex-11.1, 6-Chloro-N-(5-chloro-1-methyl-1H-pyrazol-4-yl)-7-(4-methylpiperazin-1-yl)quinazolin-2-amine], for which the IC50 was 11.7 nM.
As for `Cc1c(Nc2ncc3cc(Cl)c(N4CCC(C)(O)CC4)cc3n2)cnn1C1CC1(F)F` (single isomer, unassigned) [Ex-6.10, 1-(6-chloro-2-{[1-(2,2-(R) or (S)difluorocyclopropyl)-5-methyl-1H-pyrazol-4-yl]amino}quinazolin-7-yl)-4-methylpiperidin-4-ol], the IC50 was 0.2 nM.
As for `Cc1c(Nc2ncc3cc(Cl)c(N4CCN(C5COCC5O)CC4)cc3n2)cnn1C` (single isomer, unassigned) [Ex-6.24, (3S,4S) or (3R,4R) 4-(4-{6-chloro-2-[(1,5-dimethyl-1H-pyrazol-4-yl)amino]quinazolin-7-yl}piperazin-1-yl)oxolan-3-ol], the IC50 is 0.603 nM.
With `Cc1c(Nc2ncc3ccc(N4C(=O)OC[C@@H]4C)cc3n2)cnn1C1C[C@@H](C)O[C@@H](C)C1` (single isomer, unassigned) [Ex-7.4], the IC50 is 6.75 nM.
As to `Cc1c(Nc2ncc3cc(Cl)c(N4CCC(C)(O)C(C)C4)cc3n2)cnn1C1CC1` (single isomer, unassigned) [Ex-3.48, (3R,4R) or (3S,4S) or (3R,4S) or (3S,4R) 1-{6-chloro-2-[(1-cyclopropyl-5-methyl-1H-pyrazol-4-yl)amino]quinazolin-7-yl}-3,4-dimethylpiperidin-4-ol], the IC50 is 1.46 nM.
As for `Cc1c(Nc2ncc3cc(Cl)c(N4CCN(C5CCCC5C#N)CC4)cc3n2)cnn1C1CC1` (single isomer, unassigned) [Ex-1.6, (3S,4S or 3R,4R)-2-(4-{6-chloro-2-[(1-cyclopropyl-5-methyl-1H-pyrazol-4-yl)amino]quinazolin-7-yl}piperazin-1-yl)cyclopentane-1-carbonitrile], the IC50 is 1.89 nM.
For `CC1(N2CCN(c3cc4nc(Nc5cnn(C(F)F)c5)ncc4cc3Cl)CC2)COC1` [Ex-4.57, 6-chloro-N-[1-(difluoromethyl)-1H-pyrazol-4-yl]-7-[4-(3-methyloxetan-3-yl)piperazin-1-yl]quinazolin-2-amine], the IC50 is 4.13 nM.
